Reference: US6503943B1, “Platinum complex, its preparation and therapeutic application” (priority 1998, dated 2003)
Several values for one entry are separate records, joined by “and”; a condition that tells them apart may be missing. Equal values may be shown once.

Tests used:
leucaemia L1210 [1] = assay: Antitumor effect at animals with leucaemia L1210, intermitent administration 3x (Example 5); type: in vivo, mice DBA2; settings: 1st, 5th and 9th day
[2] = system: ascitic form of Ehrlich tumor (ATE); assay: Antitumor effect at animals with ascitic form of Ehrlich tumor (ATE) (Example 10); type: in vivo, mice ICR; settings: for Survival (in % of control) / Survival time, Geom. mean / Tumor mass (%) of control / Tumor mass, Arithm. mean: 1st day; for Tumor mass (%) of control / Tumor mass, Arithm. mean: dissection 10th day
Gardner lymphosarcoma = assay: Antitumor effect at animals with solid form of Gardner lymphosarcoma (Example 8); type: in vivo, mice C3H; settings: 5th day, tumors weighed 14th day
[3] = system: ascitic form of Ehrlich tumor (ATE); assay: Antitumor effect at animals with ascitic form of Ehrlich tumor (ATE) (Example 11);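 on all read-outs here: half of each dose group killed on day 10, tumor mass taken as animal mass lost on ascites aspiration, ascitocrit by microhematocrit centrifuge, rest followed daily for survival versus reference group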; settings: for Survival (in % of control) / Survival time, Geom. mean / Total ascitocrit (%) of control / Total ascitocrit (mass of cell fraction of a tumor), Arithm. mean / Tumor mass (%) of control / Tumor mass, Arithm. mean: 1st day; for Total ascitocrit (%) of control / Total ascitocrit (mass of cell fraction of a tumor), Arithm. mean / Tumor mass (%) of control / Tumor mass, Arithm. mean: dissection 10th day
leucaemia L1210 [4] = assay: Antitumor effect at animals with leucaemia L1210, continual versus intermitent regimen (Example 6); type: in vivo, mice DBA2; settings: for Survival (in % of control) / Survival time, Geom. mean: 1st day
leucaemia L1210 [5] = assay: Antitumor effect at animals with leucaemia L1210, single administration (Example 4); type: in vivo, mice DBA2; settings: for Survival (in % of control) / Survival time, Geom. mean: 1st day
[6] = system: mammal adenocarcinoma MC2111; assay: Antitumor effect at animals with solid form of mammal adenocarcinoma MC2111 (Example 9); type: in vivo, mice DBA1; settings: for Tumor mass (%) of control / Tumor mass, Arithm. mean: 5th day, tumor size 14th day, mass from regression
leucaemia L1210 [7] = assay: Antitumor effect at animals with leucaemia L1210, continual regimen (Example 7); type: in vivo, mice DBA2

N.N.[Cl][Pt][Cl] [Platidiam, cis-diammin-dichloroplatinum(II) complex]
Survival (in % of control) (leucaemia L1210 [1]; 1 mg/kg/day s.c. 3x): 178%
Survival time, Geom. mean (leucaemia L1210 [1]; 1 mg/kg/day s.c. 3x): 28.0 days
Survival (in % of control) (leucaemia L1210 [1]; 2 mg/kg/day s.c. 3x): 168%
Survival time, Geom. mean (leucaemia L1210 [1]; 2 mg/kg/day s.c. 3x): 26.3 days
Survival (in % of control) (leucaemia L1210 [1]; 4 mg/kg/day s.c. 3x): 106%
Survival time, Geom. mean (leucaemia L1210 [1]; 4 mg/kg/day s.c. 3x): 16.6 days
Survival (in % of control) ([2]; 2 mg/kg s.c. 1x): 120%
Survival time, Geom. mean ([2]; 2 mg/kg s.c. 1x): 13.8 days
Tumor mass (%) of control ([2]; 2 mg/kg s.c. 1x): 115%
Tumor mass, Arithm. mean ([2]; 2 mg/kg s.c. 1x): 3.06 g
Survival (in % of control) ([2]; 4 mg/kg s.c. 1x): 190%
Survival time, Geom. mean ([2]; 4 mg/kg s.c. 1x): 21.8 days
Tumor mass (%) of control ([2]; 4 mg/kg s.c. 1x): 101%
Tumor mass, Arithm. mean ([2]; 4 mg/kg s.c. 1x): 2.68 g
Survival (in % of control) ([2]; 8 mg/kg s.c. 1x): 184%
Survival time, Geom. mean ([2]; 8 mg/kg s.c. 1x): 21.0 days
Tumor mass (%) of control ([2]; 8 mg/kg s.c. 1x): 82%
Tumor mass, Arithm. mean ([2]; 8 mg/kg s.c. 1x): 2.16 g
Significance of mean survival time increase in comparison with untreated control (p≦0.01), in words ([2]; Tab. 7-2): atatistically highly significant
Tumor mass (%) of control (Gardner lymphosarcoma; 2 mg/kg s.c. 1x): 83%
Tumor mass, Arithm. mean (Gardner lymphosarcoma; 2 mg/kg s.c. 1x): 5.19 g
Tumor mass (%) of control (Gardner lymphosarcoma; 4 mg/kg s.c. 1x): 59%
Tumor mass, Arithm. mean (Gardner lymphosarcoma; 4 mg/kg s.c. 1x): 3.68 g
Tumor mass (%) of control (Gardner lymphosarcoma; 8 mg/kg s.c. 1x): 26%
Tumor mass, Arithm. mean (Gardner lymphosarcoma; 8 mg/kg s.c. 1x): 1.64 g
Survival (in % of control) ([3]; 2 mg/kg s.c. 1x): 128%
Survival time, Geom. mean ([3]; 2 mg/kg s.c. 1x): 11.4 days
Total ascitocrit (%) of control ([3]; 2 mg/kg s.c. 1x): 115%
Total ascitocrit (mass of cell fraction of a tumor), Arithm. mean ([3]; 2 mg/kg s.c. 1x): 0.79 g
Tumor mass (%) of control ([3]; 2 mg/kg s.c. 1x): 72%
Tumor mass, Arithm. mean ([3]; 2 mg/kg s.c. 1x): 2.83 g
Survival (in % of control) ([3]; 4 mg/kg s.c. 1x): 197%
Survival time, Geom. mean ([3]; 4 mg/kg s.c. 1x): 17.5 days
Total ascitocrit (%) of control ([3]; 4 mg/kg s.c. 1x): 116%
Total ascitocrit (mass of cell fraction of a tumor), Arithm. mean ([3]; 4 mg/kg s.c. 1x): 0.80 g
Tumor mass (%) of control ([3]; 4 mg/kg s.c. 1x): 90%
Tumor mass, Arithm. mean ([3]; 4 mg/kg s.c. 1x): 3.53 g
Survival (in % of control) ([3]; 8 mg/kg s.c. 1x): 208%
Survival time, Geom. mean ([3]; 8 mg/kg s.c. 1x): 18.5 days
Total ascitocrit (%) of control ([3]; 8 mg/kg s.c. 1x): 100%
Total ascitocrit (mass of cell fraction of a tumor), Arithm. mean ([3]; 8 mg/kg s.c. 1x): 0.68 g
Tumor mass (%) of control ([3]; 8 mg/kg s.c. 1x): 60%
Tumor mass, Arithm. mean ([3]; 8 mg/kg s.c. 1x): 2.36 g
Evaluation of antitumor effect (survival time versus control), in words ([3]; p.o.×9, Platidiam 8 and 4 mg/kg s.c.×1, Tab. 8.1): antitumor effective
Survival (in % of control) (leucaemia L1210 [4]; 2 mg/kg s.c. 1x): 155%
Survival time, Geom. mean (leucaemia L1210 [4]; 2 mg/kg s.c. 1x): 17.9 days
Survival (in % of control) (leucaemia L1210 [4]; 4 mg/kg s.c. 1x): 174%
Survival time, Geom. mean (leucaemia L1210 [4]; 4 mg/kg s.c. 1x): 20.2 days
Survival (in % of control) (leucaemia L1210 [4]; 8 mg/kg s.c. 1x): 204%
Survival time, Geom. mean (leucaemia L1210 [4]; 8 mg/kg s.c. 1x): 23.7 days
Evaluation of antitumor effect (survival time versus control), in words (leucaemia L1210 [4]; LA-12 6 mg/kg p.o.×9, Platidiam 8 and 4 mg/kg s.c.×1, LA-2 any of the dosage groups): antitumor effective
Survival (in % of control) (leucaemia L1210 [5]; 2.5 mg/kg s.c. 1x): 112%
Survival time, Geom. mean (leucaemia L1210 [5]; 2.5 mg/kg s.c. 1x): 14.2 days
Survival (in % of control) (leucaemia L1210 [5]; 5 mg/kg s.c. 1x): >132%
Survival time, Geom. mean (leucaemia L1210 [5]; 5 mg/kg s.c. 1x): 16.7 days
Increase of mean value of survival time against the control (leucaemia L1210 [5]; 5 mg/kg s.c., single, not statistically significant): 32%
Survival (in % of control) (leucaemia L1210 [5]; 10 mg/kg s.c. 1x): 48%
Survival time, Geom. mean (leucaemia L1210 [5]; 10 mg/kg s.c. 1x): 6.1 days
Tumor mass (%) of control ([6]; 4 mg/kg s.c. 1x): 76%
Tumor mass, Arithm. mean ([6]; 4 mg/kg s.c. 1x): 3.53 g
Tumor mass (%) of control ([6]; 8 mg/kg s.c. 1x): 69%
Tumor mass, Arithm. mean ([6]; 8 mg/kg s.c. 1x): 3.20 g
LTS - Long Term Survivors; the amount of animals destroyed at 120th day ([6]; mouse, in vivo): 1/10
Survival (in % of control) ([6]; mouse, in vivo): >162 2) % and >158 1) %
Survival time, Geom. mean ([6]; mouse, in vivo): 35.1 days and 34.3 days
Evaluation of antitumor effect, in words ([6]; p.o.×9 12, 6, 3 mg/kg/day, Platidiam 8 and 4 mg/kg s.c. once): antitumor effective
LTS - Long Term Survivors (amount of surviving animals in a group) (leucaemia L1210 [7]; 4 mg/kg s.c. 1x, 1st day): 5/10
Survival (in % of control) (leucaemia L1210 [7]; 4 mg/kg s.c. 1x, 1st day): >223%
Survival time, Geom. mean (leucaemia L1210 [7]; 4 mg/kg s.c. 1x, 1st day): 50.2 days
Increase of survival time value in comparison with the control group (leucaemia L1210 [7]; 4 mg/kg s.c.×1): 123%
